From patent US6737383B1, “Herbicidal oxadiazolidines” (priority 1999, dated 2004)

Key:
rape = test: Test B pre/postemergence rape; format: in vivo, Brassica napus
Outline: (§1)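 Herbicidal effect was estimated by eye on a ten-point control scale after plants spent twelve to sixteen days in a greenhouse following soil or foliar treatment. Foliar sprays targeted plants at one to four leaves; all doses were formulated in a non-phytotoxic solvent with surfactant.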

wheat = test: Test B pre/postemergence wheat; format: in vivo, Triticum aestivum
Outline: as §1

crabgrass = test: Test B pre/postemergence crabgrass; format: in vivo, Digitaria sanguinalis
Outline: as §1

purple nutsedge = test: Test B pre/postemergence purple nutsedge; format: in vivo, Cyperus rotundus
Outline: as §1

giant foxtail = test: Test B pre/postemergence giant foxtail; format: in vivo, Setaria faberii
Outline: as §1

duck salad = test: Test B flood test duck salad; format: in vivo, Heteranthera limosa
Outline: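 Flood test on plants grown to the 2-leaf stage; treated plants kept in greenhouse twelve to sixteen days, then visually rated against controls on a 0 (no effect) to 10 (complete control) scale.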

surinam grass = test: Test B pre/postemergence surinam grass; format: in vivo, Brachiaria decumbens
Outline: as §1

bedstraw = test: Test B pre/postemergence bedstraw; format: in vivo, Galium aparine
Outline: as §1

pigweed = test: Test B pre/postemergence pigweed; format: in vivo, Amaranthus retroflexus
Outline: as §1

sugar beet = test: Test B pre/postemergence sugar beet; format: in vivo, Beta vulgaris
Outline: as §1

morningglory = test: Test B pre/postemergence morningglory; format: in vivo, Ipomoea hederacea
Outline: as §1

corn = test: Test B pre/postemergence corn; format: in vivo, Zea mays
Outline: as §1

cocklebur = test: Test B pre/postemergence cocklebur; format: in vivo, Xanthium strumarium
Outline: as §1

velvetleaf = test: Test B pre/postemergence velvetleaf; format: in vivo, Abutilon theophrasti
Outline: as §1

soybean = test: Test B pre/postemergence soybean; format: in vivo, Glycine max
Outline: as §1

[1] = Preemergence, Rate 62 g/ha, scale of 0 to 10 where 0 is no effect and 10 is complete control
[2] = Preemergence, Rate 250 g/ha, scale of 0 to 10 where 0 is no effect and 10 is complete control
[3] = Preemergence, Rate 500 g/ha, scale of 0 to 10 where 0 is no effect and 10 is complete control
[4] = Rate 62 g/ha, Postemergence, scale of 0 to 10 where 0 is no effect and 10 is complete control
[5] = Rate 125 g/ha, Postemergence, scale 0 to 10
[6] = Rate 125 g/ha, Preemergence, scale of 0 to 10 where 0 is no effect and 10 is complete control
[7] = Rate 500 g/ha, Postemergence, scale 0 to 10, 0 no effect, 10 complete control

Cc1nc(C)c(Cn2c(=O)on(C(=O)N(c3ccc(F)cc3)C(C)C)c2=O)s1 [Compound 232]
0: Rape plant response rating (rape; [1]) | Rape plant response rating (rape; [2]) | Plant response rating, Rape (rape; [3]) | Rape plant response rating (rape; [4]) | Rape plant response rating (rape; [6]) | Wheat plant response rating (wheat; [1]) | Wheat plant response rating (wheat; [2]) | Plant response rating, Wheat (wheat; [3]) | Wheat plant response rating (wheat; [4]) | Wheat plant response rating (wheat; [5]) | Wheat plant response rating (wheat; [6]) | Plant response rating (0 to 10; 0 is no effect, 10 is complete control), Wheat (wheat; Rate 250 g/ha, Postemergence) | Wheat plant response rating (wheat; [7]) | Crabgrass plant response rating (crabgrass; [4]) | Nutsedge plant response rating (purple nutsedge; [1]) | Nutsedge plant response rating (purple nutsedge; [4]) | Nutsedge plant response rating (purple nutsedge; [5]) | Nutsedge plant response rating (purple nutsedge; [6]) | Plant response rating (0 to 10; 0 is no effect, 10 is complete control), Nutsedge (purple nutsedge; Rate 250 g/ha, Postemergence) | Nutsedge plant response rating (purple nutsedge; [7]) | Giant foxtail plant response rating (giant foxtail; [4]) | Giant foxtail plant response rating (giant foxtail; [5]) | Ducksalad plant response rating (duck salad; Rate 62 g/ha, headed Pre-emergence (flood test species), scale 0 to 10 (0 no effect, 10 complete control)) | Ducksalad plant response rating (duck salad; Rate 125 g/ha, Pre-emergence, flood test species, scale 0 to 10 where 0 is no effect and 10 is complete control) | Ducksalad plant response rating (duck salad; Rate 250 g/ha, Pre-emergence, flood-test species, scale 0 to 10, 0 is no effect, 10 is complete control) | Ducksalad plant response rating (duck salad; Rate 500 g/ha, Pre-emergence, flood test species, scale 0 to 10 (0 no effect, 10 complete control)) | B. signalgrass plant response rating (surinam grass; [1]) | B. signalgrass plant response rating (surinam grass; [4]) | B. signalgrass plant response rating (surinam grass; Rate 125 g/ha, Postemergence, scale 0 (no effect) to 10 (complete control)) | B. signalgrass plant response rating (surinam grass; [6]) | Bedstraw plant response rating (bedstraw; [1]) | Bedstraw plant response rating (bedstraw; [2]) | Plant response rating, Bedstraw (bedstraw; [3]) | Bedstraw plant response rating (bedstraw; [4]) | Bedstraw plant response rating (bedstraw; [5]) | Bedstraw plant response rating (bedstraw; [6]) | Redroot pigweed plant response rating (pigweed; [1]) | Redroot pigweed plant response rating (pigweed; [6]) | Sugarbeets plant response rating (sugar beet; [1]) | Sugarbeets plant response rating (sugar beet; [4]) | Sugarbeets plant response rating (sugar beet; [6]) | Morningglory plant response rating (morningglory; [1]) | Morningglory plant response rating (morningglory; [2]) | Plant response rating, Morningglory (morningglory; [3]) | Morningglory plant response rating (morningglory; [6]) | Corn plant response rating (corn; [1]) | Corn plant response rating (corn; [2]) | Plant response rating, Corn (corn; [3]) | Corn plant response rating (corn; [4]) | Corn plant response rating (corn; [5]) | Corn plant response rating (corn; [6]) | Plant response rating (0 to 10; 0 is no effect, 10 is complete control), Corn (corn; Rate 250 g/ha, Postemergence) | Corn plant response rating (corn; [7]) | Cocklebur plant response rating (cocklebur; [1]) | Cocklebur plant response rating (cocklebur; [2]) | Plant response rating, Cocklebur (cocklebur; [3]) | Cocklebur plant response rating (cocklebur; [4]) | Cocklebur plant response rating (cocklebur; [6]) | Velvetleaf plant response rating (velvetleaf; [1]) | Velvetleaf plant response rating (velvetleaf; [2]) | Plant response rating, Velvetleaf (velvetleaf; [3]) | Velvetleaf plant response rating (velvetleaf; [6]) | Soybean plant response rating (soybean; [1]) | Soybean plant response rating (soybean; [2]) | Plant response rating, Soybean (soybean; [3]) | Soybean plant response rating (soybean; [6])
2: Rape plant response rating (rape; [5]) | Plant response rating (0 to 10; 0 is no effect, 10 is complete control), Rape (rape; Rate 250 g/ha, Postemergence) | Rape plant response rating (rape; [7]) | Crabgrass plant response rating (crabgrass; [7]) | Plant response rating (0 to 10; 0 is no effect, 10 is complete control), Giant foxtail (giant foxtail; Rate 250 g/ha, Postemergence) | Plant response rating (0 to 10; 0 is no effect, 10 is complete control), Bedstraw (bedstraw; Rate 250 g/ha, Postemergence) | Bedstraw plant response rating (bedstraw; [7]) | Redroot pigweed plant response rating (pigweed; [4]) | Sugarbeets plant response rating (sugar beet; [5]) | Plant response rating (0 to 10; 0 is no effect, 10 is complete control), Sugarbeets (sugar beet; Rate 250 g/ha, Postemergence) | Cocklebur plant response rating (cocklebur; [5]) | Plant response rating (0 to 10; 0 is no effect, 10 is complete control), Cocklebur (cocklebur; Rate 250 g/ha, Postemergence) | Velvetleaf plant response rating (velvetleaf; [4]) | Velvetleaf plant response rating (velvetleaf; [5]) | Plant response rating (0 to 10; 0 is no effect, 10 is complete control), Velvetleaf (velvetleaf; Rate 250 g/ha, Postemergence)
7: Crabgrass plant response rating (crabgrass; [6]) | Plant response rating, Redroot pigweed (pigweed; [3])
1: Crabgrass plant response rating (crabgrass; [5]) | Plant response rating (0 to 10; 0 is no effect, 10 is complete control), Crabgrass (crabgrass; Rate 250 g/ha, Postemergence) | B. signalgrass plant response rating (surinam grass; Preemergence, Rate 250 g/ha, scale 0 to 10, 0 is no effect, 10 is complete control) | Plant response rating (0 to 10; 0 is no effect, 10 is complete control), B. signalgrass (surinam grass; Rate 250 g/ha, Postemergence)
8: Giant foxtail plant response rating (giant foxtail; [2]) | Giant foxtail plant response rating (giant foxtail; [6]) | B. signalgrass plant response rating (surinam grass; [7]) | Morningglory plant response rating (morningglory; [5]) | Plant response rating (0 to 10; 0 is no effect, 10 is complete control), Morningglory (morningglory; Rate 250 g/ha, Postemergence) | Morningglory plant response rating (morningglory; [7])
10: Plant response rating, Crabgrass (crabgrass; [3])
9: Crabgrass plant response rating (crabgrass; [2]) | Plant response rating, Giant foxtail (giant foxtail; [3])
3: Giant foxtail plant response rating (giant foxtail; [7]) | Redroot pigweed plant response rating (pigweed; [5]) | Sugarbeets plant response rating (sugar beet; [7]) | Morningglory plant response rating (morningglory; [4]) | Velvetleaf plant response rating (velvetleaf; [7]) | Soybean plant response rating (soybean; [4]) | Soybean plant response rating (soybean; [5])
6: Giant foxtail plant response rating (giant foxtail; [1]) | Plant response rating (0 to 10; 0 is no effect, 10 is complete control), Redroot pigweed (pigweed; Rate 250 g/ha, Postemergence)
4: Redroot pigweed plant response rating (pigweed; [7]) | Sugarbeets plant response rating (sugar beet; [2]) | Plant response rating, Sugarbeets (sugar beet; [3]) | Cocklebur plant response rating (cocklebur; [7]) | Plant response rating (0 to 10; 0 is no effect, 10 is complete control), Soybean (soybean; Rate 250 g/ha, Postemergence) | Soybean plant response rating (soybean; [7])
5: Crabgrass plant response rating (crabgrass; [1]) | Plant response rating, B. signalgrass (surinam grass; [3]) | Redroot pigweed plant response rating (pigweed; [2])
